# Source: patent US20040175763A1, “Crohn's disease antibody-binding peptide and method of examining crohn's disease” (priority 2001, published 2004)
# No end group written: not given here.
# Experiments:
# [1] = system: Crohn's disease antibody (serum antibodies); experiment: MAP antigen-ELISA of Z300 peptide (Example 6(4)); type: binding, human
# Protocol: Therefore, in order to confirm that human nuclear protein (HZF300) is a protein simulated or mimicked by CDP3 peptide, the peptide (Z300 peptide) having the amino acid sequence of the 126-138 amino acid region of HZF300 was prepared in the form of a MAP peptide and the MAP antigen ELISA was carried out using 20 Crohn's disease patient serum samples, 20 ulcerative colitis patient serum samples, and 20 healthy volunteer serum samples.
# First, each human serum was diluted 101-fold with the sample diluent (described hereinbefore) and 100 μL/well of the solution was added to the MAP plate prepared by immobilizing the said MAP peptide. Then, the procedure of the secondary reaction and subsequent operation described in Example 6(2) was followed to investigate the reactivity of the MAP peptide to various kinds of serum antibodies.
# Crohn's disease antibody [2] = experiment: Reaction inhibition test with one amino acid-substituted MAP peptides on CDP3 MAP plate (Example 6(2)); type: binding, human; settings: inhibitor MAP peptide 100 μg/mL
# Protocol: Referring to the amino acid sequence of CDP peptide, in order to determine the sequence necessary for the specific reactivity to Crohn's disease antibody, the following reaction inhibition test was performed using each of the one amino acid-substituted MAP peptides prepared as above as the reaction inhibitor.
# More particularly, using the MAP plate prepared by immobilizing the MAP peptide of CDP3 (see Example 2(1)) as the antigen plate, the test was performed by 3 reaction steps. In the primary reaction, the Crohn's disease patient serum was diluted 100-fold with a sample diluent containing the one amino acid-substituted MAP peptide in a concentration of 100 μg/mL (0.1 M Tris-buffer containing 0.5 M sodium chloride, 1.5% casein, 2% normal goat serum and 0.2% Tween 20) and reacted at 25° C. for one hour. In the secondary reaction, 100 μL/well of the primary reaction mixture was added to the plate and reacted at 25° C. for one hour, after which the plate was washed 3 times. In the tertiary reaction, 100 μL/well of HRP-labeled anti-human IgG (Fc)-specific antibody diluted 5,000-fold in an enzyme-labeled antibody diluent (Tris buffer containing 0.14 M sodium chloride, 0.5% BAS, 5% normal goat serum and 0.05% Tween 20) was added to the plate, and reacted at 25° C. for 1 hour, followed by 3 rounds of washing. Detection was performed as in Example 2(1) to measure the reaction-inhibiting activity of the one amino acid-substituted MAP peptide.
# [3] = system: Crohn's disease patient serum antibody; experiment: Phage ELISA of CD-binding peptide display phage clones with serum samples; parameters: species or system human; settings: 20 Crohn's disease, 20 ulcerative colitis, 20 healthy volunteer serum samples
# Protocol: Using the monoclonal CD-binding peptide display phage obtained as above, phage ELISA was carried out with the same healthy volunteer serum pool and Crohn's disease patient serum pool as used in the above biopanning (cf. (i)).
# In the ELISA, an anti-phage antibody (Pharmacia) was immobilized on a 96-well microtiter plate in the first place. Specifically, this immobilization was carried out by adding an anti-phage antibody (Pharmacia) solution prepared in a 1 μg/ml concentration with (D)-PBS, to the plate, 100 μl per well. The plate was left sitting at 4° C. overnight and then washed, and after addition of 300 μl of blocking solution ((D)-PBS containing 1% BSA and 5% sorbitol), further left sitting at 4° C. overnight.
# The primary reaction was carried out as follows. Thus, 10 μl of the phage solution in (ii) was added to 90 μl of phage ELISA buffer ((D)-PBS containing 1% BSA, 0.05% Tween 20 and 10% normal goat serum), the mixture was added to each well coated with said anti-phage antibody, and the reaction was conducted at 37° C. for 1 hour. After completion of the primary reaction, the plate was washed 4 times and the secondary reaction was carried out. The secondary reaction was performed by adding the mixture containing 1 μl of serum (healthy volunteer serum or Crohn's disease patient serum) and 100 μl of phage ELISA buffer, to each well, and allowing the reaction to proceed at 37° C. for 1 hour. After completion of the secondary reaction, the plate was washed 4 times and the tertiary reaction was carried out. The tertiary reaction was conducted by adding HRP (horseradish peroxidase)-labeled anti-human IgG (Fc)-specific antibody, diluted 40,000-fold in phage ELISA buffer (20 ng/ml) in advance, to the plate, 100 μl per well, and allowing the reaction to proceed at 37° C. for one hour. After completion of the tertiary reaction, the plate was washed and a color development reaction was carried out. The color development was conducted by adding TMB (3,3′,5,5′-tetramethylbenzidine) solution to the plate, allowing the reaction to proceed at room temperature for 10 minutes, and stopping the reaction with a stopper (1N sulfuric acid). The plate after reaction stopping was measured for absorbance (OD 450 nm) with a plate reader to evaluate the reactivity with the serum antibody.
# For the 5 clones thus selected, the reactivity (ELISA) with the respective serum samples (Crohn's disease patient serum, ulcerative colitis patient serum, and healthy volunteer serum) was evaluated.
# [4] = system: Crohn's disease antibody (serum IgG); experiment: MAP peptide ELISA of CDP-1a, CDP-5a and VATE-201 (Example 4); type: binding, human; settings: 20 Crohn's disease, 20 ulcerative colitis, 20 healthy volunteer serum samples
# Description: Therefore, the following peptides (CDP-1a peptide, CDP-5a peptide, VATE-201 peptide) were respectively synthesized in the MAP form (multiple antigenic peptides) by the same procedure as described in Example 1(3) (FIG. 9), and in accordance with the protocol of Example 2(1), the reactivity of each MAP peptide to various serum samples (Crohn's disease patient sera, ulcerative colitis patient sera and healthy volunteer sera) was investigated by ELISA.
# As test sera, 20 Crohn's disease patient serum samples were used and, as control sera, 20 ulcerative colitis serum samples and 20 healthy volunteer serum samples were used.
# [5] = system: Crohn's disease antibody (serum antibodies); experiment: MAP antigen-ELISA of TO3965 peptide (Example 7(4)); type: binding, human; settings: for reactions with ulcerative colitis patient sera and healthy volunteer sera: 20 ulcerative colitis, 20 healthy volunteer serum samples
# Protocol: At this junction, in order to endorse the assumption that rice allergen proteins are proteins simulated or mimicked by CDP4 peptide, a peptide (TO3965 peptide) having an amino acid sequence corresponding to the 99-111 amino acid region of Rice seed allergen RA14 (FIG. 16) was prepared in the form of a MAP peptide and the MAP antigen-ELISA was performed using 20 Crohn's disease patient serum samples, 20 ulcerative colitis patient serum samples, and 20 healthy volunteer serum samples.
# Except that a MAP antigen plate prepared by immobilizing the MAP peptide of TO3965 on the plate was used as the antigen plate, the MAP antigen-ELISA was carried out in otherwise the same manner as in Example 6(4).
# Crohn's disease antibody [6] = experiment: Test for inhibition of the antigen-antibody reaction between CDP-1a peptide and Crohn's disease antibody (Example 5); type: binding, human; settings: sera No. 8, No. 9, No. 14; reaction inhibitor 100 μg/ml
# Protocol: To confirm the reactivity of VATE-201 obtained in Example 4, a test for inhibition of the antigen-antibody reaction between CDP-1a peptide and Crohn's disease antibody was carried out using VATE-201 peptide.
# More particularly, the MAP plate prepared by immobilizing CDP-1a MAP peptide was used as the antigen plate (see Example 2(1)). On the other hand, 1 μL of each serum sample was added to 100 μL of a casein solution ((D)-PBS containing 0.1% casein and 1% Triton X-100) containing the MAP peptide of VATE-201 (reaction inhibitor) at a concentration of 100 μg/ml and the reaction was carried out at 37° C. for one hour. The whole amount of the reaction mixture thus obtained was added to the above MAP plate and ELISA was performed in the same manner as in Example 2(1). As a comparative experiment, using the MAP peptide of CDP-1a in lieu of the MAP peptide of VATE-201 as said reaction inhibitor, ELISA was carried out in otherwise the same manner.
# Crohn's disease antibody [7] = experiment: Test for inhibition of the antigen-antibody reaction between CDP4 peptide and Crohn's disease antibody using TO3965 peptide (Example 7(5)); type: binding, human; settings: sera Nos. 3, 6, 15, 17 and 20
# Protocol: To confirm the reactivity of TO3965 peptide to Crohn's disease antibody, a test for inhibition of the antigen-antibody reaction between CDP4 peptide and Crohn's disease antibody was performed using TO3965 peptide as a reaction inhibitor as in Example 6(5).
# Crohn's disease antibody [8] = experiment: Test for inhibition of the antigen-antibody reaction between CDP3 peptide and Crohn's disease antibody using Z300 peptide (Example 6(5)); type: binding, human; settings: sera No. 2, No. 7, No. 8; inhibitor 100 μg/ml
# Protocol: To verify the reactivity of Z300 peptide to Crohn's disease antibodies, a test for inhibition of the antigen-antibody reaction between CDP3 peptide and Crohn's disease antibody was performed using Z300 peptide.
# More particularly, the MAP plate prepared by immobilizing the MAP peptide of CDP3 on a plate (Example 2(1)) was used. To 100 μL of the sample diluent containing 100 μg/ml of Z300 MAP peptide (reaction inhibitor) was added 1 μL of the serum sample and the reaction was carried out at 25° C. for one hour. The whole amount of this reaction mixture was added to the plate and ELISA was performed in the same manner as in Example 6(2). As a comparative experiment, ELISA was similarly performed using the MAP peptide of CDP3, in lieu of the MAP peptide of Z300, as said reaction inhibitor.
# [9] = molecular target: Crohn's disease patient serum No. 7 (serum antibody); experiment: inhibition ELISA; serum pre-incubated with 100 ug/mL MAP peptide, then CDP3 MAP plate; grade of reaction-inhibiting activity
# [10] = molecular target: Crohn's disease patient serum No. 2 (serum antibody); experiment: as above
# [11] = molecular target: Crohn's disease patient serum No. 8 (serum antibody); experiment: as above
molecule,measurement,setting,value
A E G E L R Q S D G Q Y Q M (AEGELRQSDGQYQM) [CDP3],reactivity of Crohn's disease patient sera to the peptide,"[1]; Crohn's disease patient serum No. 2, No. 7 and No. 8",strong reactivity
same,"reaction-inhibiting activity, Patient serum sample No. 2",Crohn's disease antibody [2],+++ (+++: reaction-inhibiting activity = 70%)
same,"reaction-inhibiting activity, Patient serum sample No. 7",Crohn's disease antibody [2],+++ (+++: reaction-inhibiting activity = 70%)
same,"reaction-inhibiting activity, Patient serum sample No. 8",Crohn's disease antibody [2],+++ (+++: reaction-inhibiting activity = 70%)
AEGEL RQSDGQYQM GDPA [CD-3],specificity to Crohn's disease patient serum (phage ELISA reactivity),[3],high specificity to Crohn's disease patient serum
AEGEL YRWLPPSSA GDPA [CD-2],specificity to Crohn's disease patient serum (phage ELISA reactivity),[3],high specificity to Crohn's disease patient serum
AEGELGLLAQQMDYADP [CDP-1a],ELISA reactivity to serum samples,[4],ELISA reactivities mutually alike
AEGELRLVGQQVMQGDP [CDP-5a],ELISA reactivity to serum samples,[4],ELISA reactivities mutually alike
"CDP4: equivalent of CD4 peptide, SEQ ID NO:34 (AEGELGGIYQDLVS; Phage Library)",reactions with ulcerative colitis patient sera and healthy volunteer sera,[5],did not show definite reactions
same,reactivity of Crohn's disease patient sera to the peptide,"[5]; Crohn's disease patient serum Nos. 3, 6, 15, 17 and 20",strong reactivity
RLDLIAQQMMPEVR [VATE-201],inhibition of the reactivity of Crohn's disease serum samples with the CDP-1a MAP plate,Crohn's disease antibody [6],invariably inhibited the reactivity
same,ELISA reactivity to serum samples,[4],ELISA reactivities mutually alike
"TO3965: peptide with the amino acid sequence of the 99-111 amino acid region of Rice seed allergen RA14, SEQ ID NO:42 (HMVGGIYRELGAT; Rice; Rice Seel Allergen RA14)",inhibition of the reactivity of Crohn's disease patient serum samples to the CDP4 MAP plate,Crohn's disease antibody [7],inhibition everything of the reactivity
same,reactions with ulcerative colitis patient sera and healthy volunteer sera,[5],did not show definite reactions
"Z300: peptide having the amino acid sequence of the 126-138 amino acid region of HZF300, SEQ ID NO:31 (LVCQGDGQLQRFL; Kruppel-like Zinc Finger Protein 300; listed as Homo sapiens)",reactions with ulcerative colitis patient sera and healthy volunteer sera,"[1]; 20 ulcerative colitis, 20 healthy volunteer serum samples",did not show definite reactions
same,inhibition of the reactivity of Crohn's disease patient sera to the CDP3 MAP plate,Crohn's disease antibody [8],inhibited the reactivity of all Crohn's disease patient sera
AEGELRQSAGQYQM (also: MAP: 8 copies as branches on a lysine core) [MAP peptide of CDP3-9],reaction-inhibiting activity,[9],30 to 50%
AEGELRQSDGAYQM (also: MAP: 8 copies as branches on a lysine core) [MAP peptide of CDP3-11],reaction-inhibiting activity,[9],30 to 50%
AEGELRQSDAQYQM (also: MAP: 8 copies as branches on a lysine core) [MAP peptide of CDP3-10],reaction-inhibiting activity,[10],30 to 50%
AEGELRQSDGQYAM (also: MAP: 8 copies as branches on a lysine core) [MAP peptide of CDP3-13],reaction-inhibiting activity,[10],30 to 50%
same,reaction-inhibiting activity,[11],50 to 70%
